Laboratory results taken from PMC7226839, “Modulation of STAT3 Signaling, Cell Redox Defenses and Cell Cycle Checkpoints by β-Caryophyllene in Cholangiocarcinoma Cells: Possible Mechanisms Accounting for Doxorubicin Chemosensitization and Chemoprevention” (Cells, 2020).
Counter-ions that a name gives are not always drawn.

Legend:
[1] = test system: γH2AX in Mz-ChA-1 cholangiocarcinoma cells; experiment: Western blotting of phosphorylated H2AX (Ser139); assay type: cell-based, human; conditions: for increase in γH2AX levels compared the control: doxorubicin 20 µM
Experimental: (§3) To perform the analysis, the cells were seeded in 6-well plates, then subjected to the treatment with β-caryophyllene (50 µM) and doxorubicin (20 µM), alone and in combination, for the required time exposure, then harvested by centrifugation and washed in PBS. A lysis buffer, containing SDS (2% w/w), Tris-hydrochloride (20 mM; pH 7.4), urea (2 M), glycerol (10% w/w), sodium orthovanadate (2 mM), DTT (10 mM) and a protease inhibitors cocktail (1:100 dilution) was used to achieve the cell protein separation. The separated proteins were resolved by SDS-PAGE 10% TGX FastCast™ Acrylamide gel (BioRad, Segrate, Italy) and transferred on PVDF membranes (BioRad, Segrate, Italy) by using a Trans-Blot® Turbo™ Transfer System (BioRad, Segrate, Italy). The membranes were blocked with a 0.2% w/v I-block (Thermo Fisher Scientific, Rodano, Italy) in Tris-buffered saline containing 0.05% Tween-20 (TBS-T), then stained with the desired primary antibodies. […] After rinsing three times in TBS-T to remove unbound primary antibody, the membranes were incubated for an additional hour with the appropriate horseradish peroxidase- or alkaline phosphatase-conjugated secondary antibody (Jackson ImmunoResearch, Pero, Italy). […] Each experiment was performed at least in three replicates.

[2] = test system: ROS in Mz-ChA-1 cholangiocarcinoma cells; experiment: Intracellular ROS determination (DCFH-DA); assay type: cell-based, human; conditions: β-caryophyllene 50 µM, doxorubicin 20 µM
Experimental: (§1) To perform the assay, the cells, seeded in 6-well plates (1 × 10^6 cells/well), were treated with the tested substances (β-caryophyllene, 50 µM; doxorubicin, 20 µM) for the required time exposure, then the ROS levels were measured in the pellets by the 2,7-dichlorofluorescein diacetate assay (DCFH-DA), as previously reported. […] In each experiment, a vehicle control, corresponding to a basal ROS level, were included too. For all the treatments, the mean DCF fluorescence of 50,000 cells was determined by a BD Accuri^TM C6 Software version 1.0.264.21 (BD Biosciences, Milan, Italy).

[3] = test system: Mz-ChA-1 cholangiocarcinoma cells; experiment: Annexin-V-Cy3/CFDA flow cytometry (apoptotic and viable cells); assay type: cell-based, human; conditions: for inhibition of viable cells (CF fluorescence): Mz-ChA-1, 2 h and 24 h, maximum
Experimental: (§2) Apoptosis extent was evaluated by Annexin-V staining (Annexin V Apoptosis detection kit, Santa Cruz Biotechnology, DBA, Milan, Italy), which is known to specifically binds phosphatidylserine, a […] which is normally embedded in the inner leaflet of plasma membrane and externalized during apoptosis, as a result of the membrane changes. Therefore, apoptotic cells can be directly detected through their staining with the fluorochrome-conjugated Annexin V. The analysis was performed by both fluorescence microscopy and flow cytometry in order to both visualize the event and to achieve a quick and accurate quantification of apoptotic cells.
For flow cytometry analysis, the cells (1 × 10^6 cells) were grown in 6-well plates, treated with β-caryophyllene (50 µM) and doxorubicin (20 µM), alone and in combination for the required time exposure, then collected by trypsinization and resuspended in PBS in the presence of the fluorochrome Annexin-V-Cy3 (4 μg/mL in cell suspension). In order to detect viable cells, the nonfluorescent probe carboxyfluorescein diacetate (CFDA; 2 μg/mL in cell suspension), hydrolyzed in living cells by esterases to its fluorescent carboxyfluorescein metabolite (CF), was included too. For each sample, the mean fluorescence of Annexin-V-Cy3 (excitation/emission at 543/570 nm, respectively) and CF (excitation/emission at 492/514 nm, respectively) in 50,000 cells was measured using a BD Accuri^TM C6 flow cytometer, FL-2 and FL-1 channels respectively (BD Biosciences, Milan, Italy). Although standard flow cytometry apoptosis assays use Annexin V-FITC, we chosen the conjugate with Cy3 in order to avoid the overlapping in the excitation wavelength of annexin V-FITC and CF, which could interfere with the analysis. Cells undergoing apoptosis were also sorted by their typical forward- and side scatter (FSC-SSC) pattern, i.e., increased SSC and decreased FSC, respect to the viable cells. Multiparameter analysis and gating of forward and side scatter as well as fluorescence detection were performed using a BD Accuri^TM C6 Software version 1.0.264.21 (BD Biosciences, Milan, Italy).

[4] = test system: H69 noncancerous cholangiocytes; experiment: Annexin-V-FITC fluorescence microscopy, semiquantitative; assay type: cell-based; conditions: H69, 24 h, β-caryophyllene 50 µM, doxorubicin 20 µM
Experimental: as §2

[5] = test system: H69 noncancerous cholangiocytes; experiment: Cell cycle analysis (PI flow cytometry); assay type: cell-based; conditions: H69, 24 h
Experimental: Analysis of cell cycle progression was performed by applying a one parameter flow cytometric method, in which cell cycle distribution was evaluated on the basis of DNA content. Briefly, after treatments, the harvested cells (about 1 × 10^6 cells) were fixed in ice cold 70% ethanol and stored for at least 2 h at 4 °C. Thereafter, the ethanol-suspended cells were separated by centrifugation, rinsed in PBS, then resuspended in a propidium iodide (PI) staining solution, containing 0.1% v/v Triton X-100, 10 μg/mL PI and 100 μg/mL DNase-free RNase A in PBS and stored at 4 °C in the dark for at least 30 min. For each sample, the mean fluorescence of PI (maximum excitation of PI bound to DNA at 536 nm; emission at 617 nm) in 50,000 cells was measured using a BD Accuri^TM C6 flow cytometer FL2 channel (BD Biosciences, Milan, Italy) and deconvolution of the DNA content frequency histograms, to estimate the proportions of cells in the respective phases of the cycle, was made by Modfit 4.1 software (Verity Software House, Topsham, ME, USA).

[6] = test system: ROS in H69 noncancerous cholangiocytes; experiment: Intracellular ROS determination (DCFH-DA); assay type: cell-based; conditions: H69, 24 h, β-caryophyllene 50 µM, doxorubicin 20 µM
Experimental: as §1

[7] = test system: γH2AX in H69 noncancerous cholangiocytes; experiment: Western blotting of phosphorylated H2AX (Ser139); assay type: cell-based; conditions: for increase of γH2AX with respect to control: doxorubicin 20 µM
Experimental: as §3

COc1cccc2c1C(=O)c1c(O)c3c(c(O)c1C2=O)C[C@@](O)(C(=O)CO)C[C@@H]3O[C@H]1C[C@H](N)[C@H](O)[C@H](C)O1 [Doxorubicin, doxorubicin hydrochloride]
increase in γH2AX levels compared the control ([1]; Mz-ChA-1, 2 h): about 60 fold | increase in γH2AX levels compared the control ([1]; Mz-ChA-1, 24 h): ~140 fold | increase of ROS levels with respect to the control ([2]; Mz-ChA-1, 2 h): ~7 fold | increase of ROS levels with respect to the control ([2]; Mz-ChA-1, 24 h): ~4 fold | inhibition of viable cells (CF fluorescence) [3]: up to 1.5 fold | increase of apoptotic rate vs the basal rate in the control ([3]; Mz-ChA-1, 24 h): ~3 fold | Annexin V H69 (semiquantitative apoptosis score) [4]: + (11%–30% = +) | increase of cell accumulation in S-phase compared the control ([5]; doxorubicin 20 µM): ~1.8 fold | reduction of G0/G1 phase ([5]; doxorubicin 20 µM): ≥ 30 fold | enhancement in ROS amount compared the control [6]: at least 3 fold | increase of γH2AX with respect to control ([7]; H69, 2 h): ~40 fold | increase of γH2AX with respect to control ([7]; H69, 24 h): ~200 fold

C=C1CC/C=C(\C)CC[C@@H]2[C@@H]1CC2(C)C [β-Caryophyllene, β-caryophyllene]
effect on γH2AX levels ([1]; Mz-ChA-1, 50 µM, 2 h and 24 h): null effects | increase of ROS levels with respect to the control ([2]; Mz-ChA-1, 2 h): about 1.6 fold | increase of ROS levels with respect to the control ([2]; Mz-ChA-1, 24 h): ~1.2 fold | inhibition of viable cells (CF fluorescence) [3]: about 1.2 fold | effect on basal apoptosis (annexin-V-Cy3) ([3]; Mz-ChA-1, β-caryophyllene 50 µM): did not affected the basal apoptosis | Annexin V H69 (semiquantitative apoptosis score) [4]: – (0%–5% = negative) | reduction of G2/M phase vs. control ([5]; β-caryophyllene 50 µM): about 1.4 fold | enhancement in ROS amount compared the control [6]: 1.3 fold | effect on γH2AX levels ([7]; H69, 50 µM, 2 h and 24 h): null effects
